The source of these data is patent US12655096B2, “Crystalline polymorphs of Rigosertib sodium” (ASSIA CHEMICAL INDUSTRIES LTD., priority 2018, dated 2026).

The nature of series [1]: Hygroscopicity (water absorption on exposure to relative humidity). It is filed as physicochemical. The text has this:
As used herein the term non-hygroscopic in relation to crystalline Rigosertib Sodium refers to less than 1.0% (w/w) absorption of water, by the crystalline Rigosertib Sodium as determined, for example, by TGA when exposed to 60% RH for 7 days at RT, or preferably 80% RH for 7 days at RT.

Series [2] can be described thus: Solid state stability on storage. The class given is physicochemical.
For series [3] the following is noted: as described in U.S. Pat. No. 8,476,320; cited from earlier work.

With `COc1cc(OC)c(/C=C/S(=O)(=O)Cc2ccc(OC)c(NCC(=O)O)c2)c(OC)c1` [Rigosertib Sodium Form A, Rigosertib Sodium], the hygroscopicity result in series [1] (non-hygroscopic defined as less than 1.0% (w/w) absorption of water) is “non-hygroscopic”. Further, the “hygroscopicity at relative humidity” value in series [1] (up to about 80% relative humidity, about 7 days, 25° C.) is recorded as “substantially non-hygroscopic”. In addition, in series [2], the “stability of the solid state form” value is “stable”. For `COc1cc(OC)c(/C=C/S(=O)(=O)Cc2ccc(OC)c(NCC(=O)O)c2)c(OC)c1` [Amorphous Rigosertib Sodium, Rigosertib Sodium], in series [3], the “hygroscopicity (water absorption)” value was “readily absorbs water after complete drying”. As to `COc1cc(OC)c(/C=C/S(=O)(=O)Cc2ccc(OC)c(NCC(=O)O)c2)c(OC)c1` [Rigosertib Sodium Form E, Rigosertib Sodium], the “time for which the form is stable” value in series [2] (at RT) is on record as “at least 4 M”.
